B1: CRP: C-reactive protein, interferent in selectivity test (protein, UniProt P02741 19-224, looked up)
C-reactive protein: QTDMSRKAFVFPKESDTSYVSLKAPLTKPLKAFTVCLHFYTELSSTRGYSIFSYATKRQDNEILIFWSKDIGYSFTVGGSEILFEVPEVTVAPVHICTSWESASGIVEFWVDGKPRVRKSLKKGYTVGAEASIILGQEQDSFGGNFEGSQSLVGDIGNVNMWDFVLSPDEINTIYLGGPFSPNVLNWRALKYEVQGEVFTKPQLWP

Biological target: aβ 1-42 peptide
Experiment: not given
Settings: Fluorescent; ref [43]; cited from earlier work
Text: Table 2 Dissociation constants Kd of the interaction between aβ 1-42 peptide and various binding partners. | column: Kd (nM)

Row | Molecule | Kd
1 | N#CC(C#N)=Cc1ccc(-c2ccc(-c3ccc(O)cc3)s2)s1 [NIAD-4, {(50-(p-Hydroxyphenyl)-2,20-bithienyl-5-yl)-methylidene}-propanedinitrile] | 10 nM
2 | CN(C)c1ccc(/C=C/C=C/C=C(C#N)C#N)cc1 [DANIR-2c] | 26.9 nM
3 | CN(C)c1ccc(/C=C/C2=CC(/C=C/c3ccc(N(C)C)cc3)=[O+][B-](F)(F)O2)cc1 [CRANAD-2, (T-4)-((1E,6E)-1,7-bis(4-(dimethylamino)phenyl)-1,6-heptadiene-3,5-dionato-kO^3,kO^5)difluoro-boron] | 38.7 nM

Test system: anti-aβ/SAM/ICE biosensor (anti-aβ antibody MOAB-2)
Experiment: Selectivity of biosensor: change in capacitance ΔC with different analytes
Assay type: binding
Settings: 1 Hz, in HS; TNF-α 0.5 ng mL^−1, insulin 10^3 ng mL^−1, CRP 10^5 ng mL^−1; n = 3
Experimental: Electrical impedance spectroscopy (EIS) (EC-Lab, Sp-200, Bio-Logic Science Instruments, Seyssinet-Pariset, France) was used for the recording of impedance and capacitance of the biosensor in PBS (pH 7.4). The EIS output signal is measured by applying an input voltage of 10 mV in a frequency range from 100 mHz–100 Hz, to the working and reference electrode. To explore the clinical application, the capacitive anti-aβ/SAM/ICE biosensor was employed for the direct detection of aβ 1-42 peptide in HS. Firstly, the pure HS was diluted in 1× PBS buffer at the ratio (1:1000), to avoid matrix effects in the measurement. Next, 1 μg mL^−1 of aβ 1-42 in pure HS was made, and then differential concentrations of aβ from 10^−3 to 10^3 ng mL^−1 were diluted using HS (1:1000). Various concentrations of aβ (10^−3–10^3 ng mL^−1) were incubated in the HS (1:1000) with the biosensor for 20 min, and the capacitance was measured. To verify the selectivity of the anti-aβ/SAM/ICE biosensor, the effects of tumor necrosis factor-alpha (TNF-α, 0.5 ng mL^−1), insulin (10^3 ng mL^−1), and C-reactive protein (CRP, 10^5 ng mL^−1) in HS were characterized using the change in capacitance ΔC value at 1 Hz frequency (Figure 7a). […] Moreover, the fabricated aβ/SAM/ICE biosensors were kept in the refrigerator at 4 °C for storage. Then, the capacitance of the biosensor at 1 Hz was recorded in PBS at 24 °C of room temperature, on the 1st, 2nd, 3rd, 7th, and 14th day after taking it out to check the stability of the biosensor, as shown in Figure 7b.

Row | Molecule | interference with aβ detection | ΔC response (change in capacitance)
4 | TNF-α | no significant interference | did not change much compared to the ΔC response for aβ
5 | insulin: insulin, interferent in selectivity test | no significant interference | did not change much compared to the ΔC response for aβ
6 | B1 | no significant interference | did not change much compared to the ΔC response for aβ

Reference: publication PMC7569882, “A Probeless Capacitive Biosensor for Direct Detection of Amyloid Beta 1-42 in Human Serum Based on an Interdigitated Chain-Shaped Electrode” (Micromachines, 2020)
